# Source: patent US5618812A, “Benzodiazepine derivatives” (Merck Sharp & Dohme, Ltd., priority 1992, dated 1997)
# Structures can show the parent of a compound that is named as a salt. Where two headings read alike, the source gives them in different places.
# How the values were obtained:
# [1] = molecular target: T1, CCK-A (Rattus norvegicus, UniProt P30551); assay: biochemical; type: binding
# T1 sequence (P30551 1-444): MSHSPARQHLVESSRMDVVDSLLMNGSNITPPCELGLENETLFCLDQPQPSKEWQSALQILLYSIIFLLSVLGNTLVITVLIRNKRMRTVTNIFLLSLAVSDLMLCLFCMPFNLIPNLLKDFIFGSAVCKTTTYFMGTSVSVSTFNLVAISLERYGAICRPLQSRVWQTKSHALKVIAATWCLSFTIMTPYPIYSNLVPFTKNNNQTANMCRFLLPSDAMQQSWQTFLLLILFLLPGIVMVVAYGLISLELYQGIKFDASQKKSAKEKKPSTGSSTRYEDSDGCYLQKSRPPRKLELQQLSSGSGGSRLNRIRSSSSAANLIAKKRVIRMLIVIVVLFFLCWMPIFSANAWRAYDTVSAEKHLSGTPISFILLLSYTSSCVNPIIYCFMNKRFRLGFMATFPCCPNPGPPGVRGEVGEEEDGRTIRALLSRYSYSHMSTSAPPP
# Method: (§1) The CCK-A and CCK-B antagonising activity of the compounds described herein was evaluated using the assays described in published European patent application no. 0514133. The method essentially involves determining the concentration of the test compound required to displace 50% of the specific ^125 I-CCK from rat pancreas (CCK-A) or guinea pig brain (CCK-B).
# [2] = molecular target: T2, CCK-B (Cavia porcellus, UniProt H0VZC5); assay: displacement of specific 125I-CCK from guinea pig brain (CCK-B receptor binding)
# T2 construct: guinea pig brain (CCK-B); from tissue; host or cells: guinea pig brain
# T2 sequence (H0VZC5 1-426): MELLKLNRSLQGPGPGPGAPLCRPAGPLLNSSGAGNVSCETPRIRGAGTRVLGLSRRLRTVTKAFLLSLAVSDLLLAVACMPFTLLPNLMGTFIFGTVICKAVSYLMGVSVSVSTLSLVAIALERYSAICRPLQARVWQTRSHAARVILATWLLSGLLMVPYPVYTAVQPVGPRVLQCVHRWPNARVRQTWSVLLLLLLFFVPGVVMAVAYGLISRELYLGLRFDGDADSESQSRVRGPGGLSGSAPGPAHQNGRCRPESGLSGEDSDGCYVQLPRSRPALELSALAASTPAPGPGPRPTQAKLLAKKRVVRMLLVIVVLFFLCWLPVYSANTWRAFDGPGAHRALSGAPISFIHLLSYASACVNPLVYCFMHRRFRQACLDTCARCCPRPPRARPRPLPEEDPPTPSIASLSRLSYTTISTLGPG
# Method: as §1, with “(CCK-B). The data in Table 1 were obtained for compounds of the Examples.” for “(CCK-B).”
# [3] = rat pancreas (CCK-A), 125I-CCK, read-out: CCK RECEPTOR BINDING RESULTS IC50 125I-CCK Pancreas
# [4] = read-out: CCK RECEPTOR BINDING RESULTS IC50 125I-CCK Brain
# [5] = CCK RECEPTOR BINDING RESULTS IC50 125I-CCK Brain
# [6] = CCK RECEPTOR BINDING RESULTS IC50 125I-CCK Pancreas, rat pancreas (CCK-A), 125I-CCK
# [7] = read-out: CCK RECEPTOR BINDING RESULTS IC50 125I-CCK Pancreas
Structure (SMILES),"IC50 [1, 3] [nM]","IC50 [2, 4] [nM]","IC50 [1, 7] [nM]","IC50 [2, 5] [nM]","IC50 [1, 6] [nM]"
"CN1C(=O)C(NC(=O)Nc2cccc(I)c2)N=C(N2CC3CCC(CC3)C2)c2ccccc21 (single isomer, unassigned; (+)) [Example 49, (+)-N-[5-(3-Azabicyclo[3,2,2]nonan-3-yl)-2,3-dihydro-1-methyl-2-oxo-1H-1,4-benzodiazepin-3-yl]-N'-[3-iodophenyl]urea]",9.65,–,–,82.7,–
"CN1C(=O)C(NC(=O)Nc2cccc(F)c2)N=C(N2CC3CCC(CC3)C2)c2ccccc21 (single isomer, unassigned; (-)) [Example 36, (-)-N-[5-(3-Azabicyclo[3,2,2]nonan-3-yl)-2,3-dihydro-1-methyl-2-oxo-1H-1,4-benzodiazepin-3-yl]-N'-[3-fluorophenyl]urea Hydrochloride]",–,–,–,0.32,1400
"CN1C(=O)C(NC(=O)Nc2ccc3c(c2)CCC3)N=C(N2CCC(C)(C)CC2)c2ccccc21 (single isomer, unassigned) [5 (enantiomer B)]",7.8,14.8,–,–,–
"CN1C(=O)C(NC(=O)Nc2cccc(C(F)(F)F)c2)N=C(N2CC3CCC(CC3)C2)c2ccccc21 (single isomer, unassigned; (+)) [Example 56, (+)-N-[5-(3-Azabicyclo[3,2,2]nonan-3-yl)-2,3-dihydro-1-methyl-2-oxo-1H-1,4-benzodiazepin-3-yl]-N'-[3-trifluoromethylphenyl]urea Hydrochloride]",62,47,–,–,–
"CCCN1C(=O)C(NC(=O)Nc2cccc(C)c2)N=C(N2CCC(C)CC2)c2ccccc21 (single isomer, unassigned) [18 (enantiomer A)]",765,0.64,–,–,–
"Cc1ccc(NC(=O)NC2N=C(N3CC4CCC(CC4)C3)c3ccccc3N(C)C2=O)cc1F (single isomer, unassigned; (-)) [Example 45, (-)-N-[5-(3-Azabicyclo[3,2,2]nonan-3-yl)-2,3-dihydro-1-methyl-2-oxo-1H-1,4-benzodiazepin-3-yl]-N'-[3-fluoro-4-methylphenyl]urea Hydrochloride]",–,–,–,0.42,> 3000
"Cc1cccc(NC(=O)NC2N=C(N3CCCCC3(C)C)c3ccccc3N(C)C2=O)c1 (single isomer, unassigned) [22 (enantiomer A)]",3670,32.9,–,–,–
"COC1CCN(C2=NC(NC(=O)Nc3cccc(C)c3)C(=O)N(C)c3ccccc32)CC1 (single isomer, unassigned) [14 (enantiomer A)]",3220,11.6,–,–,–
"CN1C(=O)C(NC(=O)Nc2ccc3c(c2)CCC3)N=C(N2CCC(C)(C)CC2)c2ccccc21 (single isomer, unassigned) [5 (enantiomer A)]",738,0.49,–,–,–
"CN1C(=O)C(NC(=O)Nc2ccccc2)N=C(N2CC3CCC(CC3)C2)c2ccccc21 (racemic) [Example 50, N-[3(R,S)-5-(3-Azabicyclo[3,2,2]nonan-3-yl)-2,3-dihydro-1-methyl-2-oxo-1H-1,4-benzodiazepin-3-yl]-N'-[phenyl]urea]",10,–,–,3.9,–
"Cc1ccc(NC(=O)NC2N=C(N3CC4CCC(CC4)C3)c3ccccc3N(C)C2=O)cc1F (single isomer, unassigned; (+)) [Example 46, (+)-N-[5-(3-Azabicyclo[3,2,2]nonan-3-yl)-2,3-dihydro-1-methyl-2-oxo-1H-1,4-benzodiazepin-3-yl]-N'-[3-fluoro-4-methylphenyl]urea Hydrochloride]",–,–,–,20.1,23.7
"CN1C(=O)C(NC(=O)c2cc3ccccc3[nH]2)N=C(N2CC3CCC(CC3)C2)c2ccccc21 (single isomer, unassigned; (-)) [Example 88, (-)-N-(5-(3-Azabicyclo[3,2,2]nonan-3-yl)-2,3-dihydro-1-methyl-2-oxo-1H-1,4-benzodiazepin-3-yl)-1H-indole-2-carboxamide hydrochloride]",–,–,–,66,393

# Further lines, with some results ahead:
"IC50 [1, 3] [nM]","IC50 [2, 4] [nM]","IC50 [1, 7] [nM]",Structure (SMILES),"IC50 [2, 5] [nM]","IC50 [1, 6] [nM]"
> 3000,0.27,–,"Cc1cccc(NC(=O)NC2N=C(N3CCCC(C)(C)C3)c3ccccc3N(C)C2=O)c1 (single isomer, unassigned; (-)) [Example 26, (-)-N-[2,3-dihydro-(3,3-dimethylpiperidin-1-yl)-1-methyl-2-oxo-1H-1,4-benzodiazepin-3-yl]N'-[3-methylphenyl]urea]",–,–
724,14.8,–,"CCCN1C(=O)C(NC(=O)Nc2cccc(C)c2)N=C(N2CCC3(CC2)OCCO3)c2ccccc21 (racemic) [Example 1, N-[3(R,S)-2,3-Dihydro-5-(1,4-dioxa-8-azaspiro[4,5]decan-8-yl)-2-oxo-1-propyl-1H-1,4-benzodiazepin-3-yl]N'-[3-methylphenyl]urea]",–,–
11.6,161,–,"CC(C)CN1C(=O)C(NC(=O)c2cc3ccccc3[nH]2)N=C(N2CCC(C)CC2)c2ccccc21 (racemic) [Example 95, 3(R,S)-N-(2,3-Dihydro-5-(4-methylpiperidin-1-yl)-1-(2-methylpropyl)-2-oxo-1H-1,4-benzodiazepin-3-yl)-1H-indole-2-carboxamide]",–,–
7.74,1.64,–,"Cc1cccc(NC(=O)NC2N=C(N3CCC(C)CC3)c3ccccc3N(C)C2=O)c1 (racemic) [Example 7, N-[3(R,S)-2,3-Dihydro-1-methyl-5-(4-methylpiperidin-1-yl)-2-oxo-1H-1,4-benzodiazepin-3-yl]N'-[3-methylphenyl]urea]",–,–
101,348,–,"CC(C)CN1C(=O)C(NC(=O)[C@@H]2Cc3ccccc3N2)N=C(N2CCCCCC2)c2ccccc21 (stereo partly drawn) [Example 93, 3(R,S)-N-(2,3-Dihydro-5-(homopiperidin-1-yl)-1-(2-methylpropyl)-2-oxo-1H-1,4-benzodiazepin-3-yl)-(2S)-indoline-2-carboxamide]",–,–
–,144,9.7,"Cc1cccc(NC(=O)NC2N=C(N3C[C@H]4CCCC[C@H]4C3)c3ccccc3N(C)C2=O)c1 (single isomer, unassigned; (+)) [Example 59, (+)-N-[2,3-Dihydro-1-methyl-5-(cis-octahydroisoindol-2-yl)-2-oxo-1H-1,4-benzodiazepin-3-yl]N'[-3-methylphenyl]urea hydrochloride]",–,–
–,2,2260,"Cc1cccc(NC(=O)NC2N=C(N3C[C@H]4CCCC[C@H]4C3)c3ccccc3N(C)C2=O)c1 (single isomer, unassigned; (-)) [Example 58, (-)-N-[2,3-Dihydro-1-methyl-5-(cis-octahydroisoindol-2-yl)-2-oxo-1H-1,4-benzodiazepin-3-yl]-N'-[3-methylphenyl]urea hydrochloride]",–,–
646,119,–,"CC(C)CN1C(=O)C(NC(=O)Cc2c[nH]c3ccccc23)N=C(N2CCCCCC2)c2ccccc21 (racemic) [Example 94, 3(R,S)-N-(2,3-Dihydro-5-(homopiperidin-1-yl)-1-(2-methylpropyl)-2-oxo-1H-1,4-benzodiazepin-3-yl)-1H-indole-3-acetamide]",–,–
14.9,23.2,–,"Cc1cccc(NC(=O)NC2N=C(NC3CCCCC3)c3ccccc3N(C)C2=O)c1 (racemic) [Example 81, N-[3(R,S)-5(N-Cyclohexylamino)-2,3-dihydro-1-methyl-2-oxo-1H-1,4-benzodiazepin-3-yl]-N'-[3-methylphenyl]urea]",–,–
304,1.36,–,"Cc1cccc(NC(=O)NC2N=C(N(C)C3CCCCC3)c3ccccc3N(C)C2=O)c1 (racemic) [Example 63, N-[3(R,S)-5-(N-Cyclohexyl-N-methylamino)-2,3-dihydro-1-methyl-2-oxo-1H-1,4-benzodiazepin-3-yl]-N'-[3-methylphenyl]urea]",–,–
25.2,4.22,–,"COC1CCN(C2=NC(NC(=O)Nc3cccc(C)c3)C(=O)N(C)c3ccccc32)CC1 (racemic) [Example 11, N-[3(R,S)-2,3-Dihydro-5-(4-methoxypiperidin-1-yl)-1-methyl-2-oxo-1H-1,4-benzodiazepin-3-yl]N'-[3-methylphenyl]urea]",–,–
